Measured values as given in patent publication US20030095958A1, “Inhibitors of bace” (priority 2001, published 2003).

Each molecule was assayed against BACE (Homo sapiens, UniProt P56817) (assay: Ki Determination for the Inhibition of BACE (FS-1 peptide fluorescence cleavage assay)). Conditions: apparent Ki; 50 nM BACE, 10 μM FS-1 substrate, 0.1M sodium acetate pH 4.5.
Type: biochemical
Procedure, shortened: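 Apparent Ki values derive from fitting fluorescence progress data (355 nm excitation, 495 nm emission) of FS-1 peptide cleavage to an integrated competitive tight-binding model. Reactions held 50 nM BACE, 10 μM substrate and inhibitor in 2% DMSO, pH 4.5 acetate buffer, with a 15 min enzyme-compound preincubation at room temperature.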

Chain of BACE (P56817 46-501): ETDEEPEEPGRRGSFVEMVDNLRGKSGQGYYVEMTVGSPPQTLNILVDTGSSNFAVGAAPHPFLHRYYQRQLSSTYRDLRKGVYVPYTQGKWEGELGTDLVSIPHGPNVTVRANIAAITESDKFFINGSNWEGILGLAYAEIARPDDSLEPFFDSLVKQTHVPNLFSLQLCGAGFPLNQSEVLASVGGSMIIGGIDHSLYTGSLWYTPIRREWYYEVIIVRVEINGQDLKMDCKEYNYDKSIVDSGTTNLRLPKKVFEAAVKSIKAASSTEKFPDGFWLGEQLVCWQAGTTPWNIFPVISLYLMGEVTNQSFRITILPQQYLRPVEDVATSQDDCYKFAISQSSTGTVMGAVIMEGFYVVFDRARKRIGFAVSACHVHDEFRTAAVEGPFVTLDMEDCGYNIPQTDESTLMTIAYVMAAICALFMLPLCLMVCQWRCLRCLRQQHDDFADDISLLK

Ki	Structure (SMILES)
3 to 30 µM	COc1cc(NC(=O)c2ccc(COc3ccccc3C(F)(F)F)cc2C2=CCNCC2)cc2ccccc12 [Compound 309, N-(4-Methoxy-naphthalen-2-yl)-2-(1,2,3,6-tetrahydro-pyridin-4-yl)-4-(2-trifluoromethyl-phenoxyraethyl)-benzamide]
3 to 30 µM	O=C(NC1CCc2ccccc2C1)C1CNCCC1c1ccc(COc2ccccc2C(F)(F)F)cc1 (centres unmarked) [Compound 219, 4-[4-(2-Trifluoromethyl-phenoxymethyl)-phenyl]-piperidine-3-carboxylic acid (1,2,3,4-tetrahydro-naphthalen-2-yl)-amide]
< 3 µM	FC(F)(F)c1ccccc1COc1ccc2c(c1)c1c(n2Cc2cccc3ccccc23)CNCC1 [Compound 505, 9-Naphthalen-1-ylmethyl-6-(2-trifluoromethyl-benzyloxy)-2,3,4,9-tetrahydro-1H-b-carboline]
> 30 µM	O=C(Nc1cc(Br)ccc1N1CCNCC1)c1cccc2ccccc12 [Compound 118, Naphthalene-1-carboxylic acid (5-bromo-2-piperazin-1-yl-phenyl)-amide]
< 3 µM	O=C(Nc1ccc(-c2ccc(Cl)c(Cl)c2)cc1N1CCNCC1)c1cccc2ccccc12 [Compound 173, Naphthalene-1-carboxylic acid (3′,4′-dichloro-3-piperazin-1-yl-biphenyl-4-yl)-amide]
> 30 µM	COc1ccc2c(c1)c1c(n2Cc2ccc3ccccc3c2)CNCC1 [Compound 503, 6-Methoxy-9-naphthalen-2-ylmethyl-2,3,4,9-tetrahydro-1H-b-carboline]
3 to 30 µM	O=C(Nc1cc(-c2ccc(C(F)(F)F)cc2F)ccc1N1CCNCC1)c1cccc2ccccc12 [Compound 161, Naphthalene-1-carboxylic acid (2′-fluoro-4-piperazin-1-yl-4′-trifluoromethyl-biphenyl-3-yl)-amide]
3 to 30 µM	O=C(OCc1cc(C2=CCNCC2)c(COc2ccccc2C(F)(F)F)cc1-c1ccoc1)c1ccccn1 [Compound 389, Pyridine-2-carboxylic acid 2-furan-3-yl-5-(1,2,3,6-tetrahydro-pyridin-4-yl)-4-(2-trifluoromethyl-phenoxymethyl)-benzyl ester]
< 3 µM	O=C(Nc1ccc(-c2ccc(C(F)(F)F)cc2)cc1N1CCNCC1)c1cccc2ccccc12 [Compound 174, Naphthalene-1-carboxylic acid (3-piperazin-1-yl-4′-trifluoromethyl-biphenyl-4-yl)-amide]
< 3 µM	O=C(Nc1cc(Br)c(COc2ccccc2C(F)(F)F)cc1N1CCNCC1)c1nccc2ccccc12 [Compound 183, Isoquinoline-1-carboxylic acid [5-bromo-2-piperazin-1-yl-4-(2-trifluoromethyl-phenoxymethyl)-phenyl]-amide]
< 3 µM	FC(F)(F)c1ccccc1OCc1cc(-c2cccs2)c(COc2ccccc2C(F)(F)F)cc1C1=CCNCC1 [Compound 345, 4-[4-Thiophen-2-yl-2,5-bis-(2-trifluoromethyl-phenoxymethyl)-phenyl]-1,2,3,6-tetrahydro-pyridine]
> 30 µM	COc1ccc2c(C(=O)Nc3cc(C(F)(F)F)ccc3N3CCNCC3)cccc2c1 [Compound 143, 6-Methoxy-naphthalene-1-carboxylic acid (2-piperazin-1-yl-5-trifluoromethyl-phenyl)-amide]
< 3 µM	O=C(NC(Cc1c[nH]c2ccccc12)C(=O)N1CCCC1C(=O)NCC1CNCCC1c1ccc(COc2ccccc2C(F)(F)F)cc1)OCC1c2ccccc2-c2ccccc21 (centres unmarked) [Compound 230, {1-(1H-Indol-3-ylmethyl)-2-oxo-2-[2-{{4-[4-(2-trifluoromethyl-phenoxymethyl)-phenyl]-piperidin-3-ylmethyl}-carbamoyl)-pyrrolidin-1-yl]-ethyl}-carbamic acid 9H-fluoren-9-ylmethyl ester]
3 to 30 µM	COC(=O)c1cccc(OCc2ccc(COc3ccccc3C(F)(F)F)cc2C2=CCNCC2)c1 [Compound 328, 3-[2-(1,2,3,6-Tetrahydro-pyridin-4-yl)-4-(2-trifluoromethyl-phenoxymethyl)-benzyloxy]-benzole acid methyl ester]
< 3 µM	O=C(Nc1cc(-c2ccc(F)c(Cl)c2)ccc1N1CCNCC1)c1cccc2ccccc12 [Compound 104, Naphthalene-1-carboxylic acid (3′-chloro-4′-fluoro-4-piperazin-1-yl-biphenyl-3-yl)-amide]
< 3 µM	C1=C(c2ccc(-c3ccccc3)cc2)C(COc2ccc3ccccc3c2)CNC1 (centres unmarked) [Compound 302, 4-Biphenyl-4-yl-3-(naphthalen-2-yloxymethyl)-1,2,3,6-tetrahydro-pyridine]
< 3 µM	FC(F)(F)c1ccccc1OCc1cc(COc2ccccc2C(F)(F)F)c(C2=CCNCC2)cc1COc1ccccc1C(F)(F)F [Compound 356, 4-[2,4,5-Tris-(2-trifluoromethyl-phenoxymethyl)-phenyl]-1,2,3,6-tetrahydro-pyridine]
< 3 µM	O=C(Nc1cc(F)c(-c2ccc(C(F)(F)F)cc2)cc1N1CCNCC1)c1cccc2ccccc12 [Compound 159, Naphthalene-1-carboxylic acid (2-fluoro-5-piperazin-1-yl-4′-trifluoromethyl-biphenyl-4-yl)-amide]
< 3 µM	O=C(c1cccc2ccccc12)n1c2c(c3cc(OCc4ccc(OC(F)F)cc4)ccc31)CCNC2 [Compound 514, [6-(4-Difluoromethoxy-benzyloxy)-1,2,3,4-tetrahydro-b-carbolin-9-yl]-naphthalen-1-yl-methanone]
< 3 µM	FC(F)(F)c1ccccc1OCc1cc(-c2ccccc2C(F)(F)F)ccc1C1=CCNCC1 [Compound 375, 4-[2′-Trifluoromethyl-3-(2-trifluoromethyl-phenoxymethyl)-biphenyl-4-yl]-1,2,3,6-tetrahydro-pyridine]
> 30 µM	O=C(Nc1ccc2ccccc2c1)C1CNCCc2c1[nH]c1ccccc21 (centres unmarked) [Compound 202, 1,2,3,4,5,6-Hexahydro-azepino[4,5-b]indole-5-carboxylic acid naphthalen-2-ylamide]
3 to 30 µM	O=C(Nc1cc(C(F)(F)F)cc(NC(=O)c2cccc3ccccc23)c1N1CCNCC1)c1cccc2ccccc12 [Compound 127, 4-{2,6-Bis-[(naphthalene-1-carbonyl)-amino]-4-trifluoromethyl-phenyl}-piperazine]
< 3 µM	N#Cc1ccccc1-c1ccc(COc2ccc3c(c2)c2c(n3C(=O)c3cccc4ccccc34)CNCC2)cc1 [Compound 532, 4′-[9-(Naphthalene-1-carbonyl)-2,3,4,9-tetrahydro-1H-b-carbolin-6-yloxymethyl]-biphenyl-2-carbonitrile]
3 to 30 µM	O=C(Nc1cc(C(F)(F)F)ccc1N1CCNCC1)c1cccc2ccccc12 [Compound 114, Naphthalene-1-carboxylic acid (2-piperazin-1-yl-5-trifluoromethyl-phenyl)-amide]
3 to 30 µM	O=C(NC(c1ccccc1)c1ccccc1)C1CNCCC1c1ccc(COc2ccccc2C(F)(F)F)cc1 (centres unmarked) [Compound 211, 4-[4-(2-Trifluoromethyl-phenoxymethyl)-phenyl]-piperidine-3-carboxylic acid benzhydryl-amide]

Structure (SMILES)	Ki
O=C(Nc1cc(C(F)(F)F)ccc1N1CCNCC1)Oc1cccc2ccccc12 [Compound 150, (2-Piperazin-1-yl-5-trifluoromethyl-phenyl)-carbamic acid naphthalen-1-yl ester]	3 to 30 µM
